# Assay: solvent given as SMILES
smiles,measurement,setting,value
C#Cc1ccc(-c2nc(-c3ccc(C#C)s3)nc(-c3ccc(C#C)s3)n2)s1,absorption maximum,in ClCCl,348 nm
CCC1=C(C)C2=Cc3c4ccccc4c4n3[B-](c3ccncc3)(Oc3ccccc3-4)[N+]2=C1C (stereo not drawn),absorption maximum,in CC#N,621 nm
same,absorption maximum,in CCCCCC,625 nm
same,absorption maximum,in Cc1ccccc1,629 nm
same,absorption maximum,in ClCCl,627 nm
CC1(C)C(/C=C/C2=C(Oc3ccc(CCN=C=S)cc3)C(=C/C=C3/N(CCCS(=O)(=O)[O-])c4ccccc4C3(C)C)/CCC2)=[N+](CCCS(=O)(=O)[O-])c2ccccc21,absorption maximum,in CO,765 nm
O=C(N/N=C/c1ccccc1O)c1cccc2ccccc12,absorption maximum,in C1CCOC1,334 nm
same,absorption maximum,in CC#N,332 nm
same,absorption maximum,in CC(C)=O,343 nm
same,absorption maximum,in CCO,400 nm
same,absorption maximum,in CN(C)C=O,395 nm
same,absorption maximum,in CS(C)=O,329 nm
same,absorption maximum,in ClCCl,328 nm
N#Cc1ccc(N/N=C/c2cc(Cl)ccc2O)cc1,absorption maximum,in CO,354 nm
c1ccc(N(c2ccccc2)c2ccc(-c3ncc(-c4ccc(-c5ccc(-c6cnc(-c7ccc(N(c8ccccc8)c8ccccc8)cc7)s6)s5)s4)s3)cc2)cc1,absorption maximum,in CO,425 nm
COCCOCCOCCOCC(COCCOCCOCCOC)Oc1cc(/C=C/c2ccc(/C=C/[N+](=O)[O-])cc2)c(OC(COCCOCCOCCOC)COCCOCCOCCOC)cc1/C=C/c1ccc(/C=C/[N+](=O)[O-])cc1,absorption maximum,in ClCCl,447 nm
CCC1=C(C)C2=Cc3cccn3[B-](F)(F)[N+]2=C1C,absorption maximum,in C1CCCCC1,512.5 nm
same,absorption maximum,in CC(C)=O,503.5 nm
same,absorption maximum,in CCO,505.5 nm
same,absorption maximum,in CCOC(C)=O,505 nm
same,absorption maximum,in CO,504.5 nm
same,absorption maximum,in OCC(F)(F)F,494.5 nm
CC(C)c1cc(N(C)C)c(C#N)c2c1-c1cccc3cccc-2c13,absorption maximum,in O,430 nm
FC(F)(F)c1ccccc1B1c2ccccc2Nc2ccccc21,absorption maximum,in ClCCl,386 nm
COc1ccc2oc(=N)c(C#N)cc2c1,absorption maximum,in ClCCl,388 nm
CCCCCCCCCCCCSc1cc2c3c(ccc4c5c(SCCCCCCCCCCCC)cc6c7c(ccc(c1c34)c75)C(=O)N(C1CCCCC1)C6=O)C(=O)N(C1CCCCC1)C2=O,absorption maximum,in ClC(Cl)Cl,574 nm
CCC(C)(C)c1ccc2c(c1)C(CCOC)(CCOC)c1cc(-c3ccc4c(c3)C(CCOC)(CCOC)c3cc(C(C)(C)CC)ccc3-4)ccc1-2,absorption maximum,in C1CCCCC1,331 nm
COc1ccc2ccc(O)cc2c1,absorption maximum,in O,325 nm
CN(C)c1ccc2c(-c3cc(N)ccc3C(=O)[O-])c3ccc(=[N+](C)C)cc-3oc2c1,absorption maximum,in CCO,542 nm
same,absorption maximum,in O,544 nm
CC(C)[Si](C#Cc1c2ccccc2c(C#Cc2c3ccccc3c(C#Cc3c4ccccc4c(C#Cc4c5ccccc5c(C#Cc5c6ccccc6c(C#Cc6c7ccccc7c(C#C[Si](C(C)C)(C(C)C)C(C)C)c7ccccc67)c6ccccc56)c5ccccc45)c4ccccc34)c3ccccc23)c2ccccc12)(C(C)C)C(C)C,absorption maximum,in Cc1ccccc1,589 nm
CC(C)(C)c1ccc(-c2nc(-c3ccc(C(C)(C)C)cc3)nc(-c3ccc(-n4c5ccccc5c5c6oc7ccccc7c6ccc54)c(C#N)c3)n2)cc1,absorption maximum,in C1CCOC1,379.46 nm
C(#Cc1cc(C#Cc2cccs2)c(C#Cc2cccs2)c(C#Cc2cccs2)c1C#Cc1cccs1)c1cccs1,absorption maximum,in ClCCl,372 nm
CN1c2cc3nc4cc(F)c(F)cc4nc3cc2N(C)C1(C)C,absorption maximum,in CCO,457 nm
O=C1c2ccc3c4ccc5c6c(ccc(c7ccc(c2c37)C(=O)N1c1ccncc1)c64)C(=O)N(c1ccncc1)C5=O,absorption maximum,in C1CCOC1,522 nm
same,absorption maximum,in C1COCCO1,525 nm
same,absorption maximum,in CC(C)=O,519 nm
same,absorption maximum,in CC(C)O,525 nm
same,absorption maximum,in CCCCO,525 nm
same,absorption maximum,in CCO,524 nm
same,absorption maximum,in CCOC(C)=O,519 nm
same,absorption maximum,in CN(C)C=O,524 nm
same,absorption maximum,in CO,525 nm
same,absorption maximum,in CS(C)=O,528 nm
same,absorption maximum,in ClC(Cl)(Cl)Cl,524 nm
same,absorption maximum,in ClC(Cl)Cl,530 nm
CCCCCCCCCCOc1cc(OCCCCCCCCCC)cc(C2=C3C(/C=C/c4ccc(N(C)C)cc4)=C(C#Cc4ccc(C(C)(C)C)cc4)C(/C=C/c4ccc(N(C)C)cc4)=[N+]3[B-](F)(F)n3c(/C=C/c4ccc(N(C)C)cc4)c(C#Cc4ccc(C(C)(C)C)cc4)c(/C=C/c4ccc(N(C)C)cc4)c32)c1,absorption maximum,in ClC(Cl)Cl,797 nm
CC[n+]1c(-c2ccccc2)c2cc(NC(=O)N[C@H]3C[C@@H]([NH3+])[C@H](O)[C@@H](O)[C@@H]3O)ccc2c2ccc(NC(=O)N[C@@H]3C[C@H]([NH3+])[C@@H](O)[C@@H](O)[C@H]3O)cc21,absorption maximum,in O,438 nm
CCOc1ccc2c(-c3nc(-c4ccccc4F)no3)cc(=O)oc2c1,absorption maximum,in CCO,345 nm
same,absorption maximum,in ClC(Cl)Cl,393 nm
CC(C)(C)c1ccc(C(C)(C)C)c(N2C(=O)c3cccc4c(-c5ccc(-c6ccccc6)s5)ccc(c34)C2=O)c1,absorption maximum,in CO,403 nm
same,absorption maximum,in CS(C)=O,405 nm
same,absorption maximum,in Cc1ccccc1,398 nm
CN(C)c1ncc2nc(C#N)n(Cc3ccccc3)c2n1,absorption maximum,in C1COCCO1,355 nm
same,absorption maximum,in CC#N,357 nm
same,absorption maximum,in CO,358 nm
same,absorption maximum,in ClCCl,361 nm
F[B-]12Oc3ccccc3-c3c4[n+]5c(c([n+]31)-c1ccccc1O2)-c1ccccc1O[B-]5(F)Oc1ccccc1-4,absorption maximum,in ClCCl,553 nm
Fc1nc(F)c(F)c(C#Cc2cc3c(cc2C#Cc2c(F)c(F)nc(F)c2F)OC2(CCCCC2)O3)c1F,absorption maximum,in CC#N,360 nm
CCCCCOc1ccc2c(c1)c1ccc3cccc4c5cccc6oc(=O)c2c(c65)c1c34,absorption maximum,in C1CCOC1,426 nm
Cc1ccccc1C1=C2C=c3c(oc4ccc(F)cc34)=[N+]2[B-](F)(F)n2c1cc1c3cc(F)ccc3oc12,absorption maximum,in C1CCCCC1,581.5 nm
same,absorption maximum,in CCOC(C)=O,576.5 nm
same,absorption maximum,in CO,574.5 nm
CC1=CC(/C=C/c2ccc(OCCCN=[N+]=[N-])cc2)=[N+]2C1=C(c1ccc(N(C)C)cc1)c1c(C)cc(C)n1[B-]2(F)F,absorption maximum,in CO,568 nm
N#Cc1c(N2CCCCC2)cc(-c2ccc(-c3ccccc3)cc2)c2c1CCc1ccccc1-2,absorption maximum,in C1CCOC1,332 nm
CCCCn1c2ccccc2c2ccc3c4cc(-c5cccc(F)c5)ccc4n(CCCC)c3c21,absorption maximum,in ClC(Cl)Cl,328 nm
Nc1ccc2c3c(cccc13)C(=O)c1ccccc1-2,absorption maximum,in CO,514.14 nm
O=[N+]([O-])c1ccc(NCCN(Cc2c3ccccc3cc3ccccc23)c2ccc([N+](=O)[O-])cc2[N+](=O)[O-])c([N+](=O)[O-])c1,absorption maximum,in C1CCCCC1,355 nm
same,absorption maximum,in C1CCOC1,372 nm
same,absorption maximum,in CC#N,371 nm
same,absorption maximum,in CC(C)=O,371 nm
same,absorption maximum,in CCO,368 nm
same,absorption maximum,in CN(C)C=O,267 nm
same,absorption maximum,in CO,369 nm
same,absorption maximum,in ClC(Cl)Cl,355 nm
CCN1CCN(c2ccc(/N=N/c3ccc(C(=O)OC)cc3)cc2)CC1,absorption maximum,in CCOC(C)=O,419 nm
c1ccc(-c2nc3c(c4c2-c2ccccc2CC4)-c2ccccc2CC3)cc1,absorption maximum,in C1CCOC1,314 nm
same,absorption maximum,in CC#N,308 nm
same,absorption maximum,in CCCCCC,309 nm
same,absorption maximum,in CCOC(C)=O,314 nm
same,absorption maximum,in CO,318 nm
same,absorption maximum,in CS(C)=O,316 nm
same,absorption maximum,in Cc1ccccc1,312 nm
same,absorption maximum,in ClCCl,318 nm
Cc1cc(O)c(C(=O)/C=C/c2ccc(Cl)cc2)c(=O)o1,absorption maximum,in CC#N,357 nm
same,absorption maximum,in ClCCl,360 nm
O=c1oc2ccccc2c2c1c(=O)oc1cc(O)cc(O)c12,absorption maximum,in CS(C)=O,388 nm
same,absorption maximum,in ClCCl,385 nm
N#Cc1c(-n2c3ccc(Cl)cc3c3cc(Cl)ccc32)c(C#N)c(-n2c3ccc(Cl)cc3c3cc(Cl)ccc32)c(-n2c3ccc(Cl)cc3c3cc(Cl)ccc32)c1-n1c2ccc(Cl)cc2c2cc(Cl)ccc21,absorption maximum,in Cc1ccccc1,384 nm
CCN(CC)c1ccc(/C=N/C2CCCCC2/N=C/c2ccc(N(CC)CC)cc2O)c(O)c1 (stereo not drawn),absorption maximum,in CC#N,376 nm
same,absorption maximum,in CN(C)C=O,410 nm
same,absorption maximum,in ClCCl,403 nm
Cc1ccc2c(nc3c(=O)n(C)c(=O)nc-3n2C)c1C,absorption maximum,in CC#N,448 nm
Cc1nc2c(c[n+]1C)CN1C(=O)N([C@H]3O[C@@H](CO)[C@H](O)[C@@H]3O)C=CC1=N2,absorption maximum,in CC#N,390 nm
same,absorption maximum,in CC(C)=O,391 nm
same,absorption maximum,in CCCCO,390 nm
same,absorption maximum,in CCCO,390 nm
same,absorption maximum,in CCO,390 nm
same,absorption maximum,in CO,390 nm
same,absorption maximum,in O,384 nm
same,absorption maximum,in [2H]OC,390 nm
same,absorption maximum,in [2H]OCC,390 nm
same,absorption maximum,in [2H]O[2H],384 nm
CCCCOC(=O)c1cc(Cl)c2c3c(Cl)cc4c5c(cc(Cl)c(c6c(Oc7ccc(C(=O)OC)cc7)cc(C(=O)OCCCC)c1c26)c53)C(=O)N(c1c(C(C)C)cccc1C(C)C)C4=O,absorption maximum,in Cc1ccccc1,507 nm
F[Si](c1ccccc1)(c1ccccc1)c1cccc2ccccc12,absorption maximum,in C1CCOC1,286 nm
CN(C)c1ccc(C2=Nc3sc4cc(Cl)ccc4[n+]3[B-](F)(F)O2)cc1,absorption maximum,in C1CCOC1,430 nm
same,absorption maximum,in CC#N,426 nm
same,absorption maximum,in CC(C)=O,430 nm
same,absorption maximum,in Cc1ccccc1,427 nm
same,absorption maximum,in ClCCl,430 nm
O=c1oc2ccccc2nc1-c1ccccc1,absorption maximum,in c1ccccc1,332 nm
CN(C)c1ccc2nc(-c3ccccc3)sc2c1,absorption maximum,in C1CCCCC1,357 nm
same,absorption maximum,in CC#N,362 nm
same,absorption maximum,in CC(C)O,361 nm
same,absorption maximum,in CO,363 nm
same,absorption maximum,in CS(C)=O,369 nm
same,absorption maximum,in ClC(Cl)Cl,362 nm
same,absorption maximum,in c1ccccc1,364 nm
COc1ccc(-c2c3cc4ccccc4cc3c(-c3ccc(OC)cc3)c3cc4ccccc4cc23)cc1,absorption maximum,in ClCCl,602 nm
CCCCN(CCCC)c1ccc2c#cc3cc4c#cc5ccc(C(F)(F)F)cc5c#cc#cc5cc(N(CCCC)CCCC)ccc5c#cc4cc3c#cc3ccc(C(F)(F)F)cc3c#cc#cc2c1,absorption maximum,in ClCCl,472 nm
N#CC(C#N)=Cc1ccc2c(c1)[nH]c1c3ccccc3ccc21,absorption maximum,in ClCCl,436 nm
COc1ccc(C2=C(Br)C(c3ccccc3)=[N+]3C2=Nc2c(-c4ccc(OC)cc4)c(Br)c(-c4ccccc4)n2[B-]3(F)F)cc1,absorption maximum,in Cc1ccccc1,654 nm
c1ccc(-c2nc(-c3ccc(N4c5ccccc5Sc5ccccc54)cc3)nn2-c2ccc(N3c4ccccc4Sc4ccccc43)cc2)nc1,absorption maximum,in ClCCl,377 nm
